Reference: the RepoRT retention time repository

Assay: Agilent ZORBAX 300 SB-C18, 150 × 1 mm, 3.5 µm; A: water + 0.01% heptafluorobutyric acid; B: acetonitrile + 0.01% heptafluorobutyric acid; gradient (min/%B) 0/0 100/90
Conditions: stereoisomer not certain
Compound `CC(=O)Nc1ccc(C(=O)NCc2ccccn2)cc1` has an LC retention time of 7.41 min. With `O=C(CCN1C(=O)c2ccccc2C1=O)Nc1cccc(C(=O)O)c1` the LC retention time was 10.2 min. For `COC(=O)C(N)c1ccccc1` (configuration not stated), the LC retention time was 7.62 min. `Cc1n[nH]c(=O)nc1N=NCc1c[nH]c2ccccc12` showed an LC retention time of 10 min. `Cc1cc(O)c(C(C)C)cc1CNC(=O)c1ccccc1O` showed an LC retention time of 14.4 min. `Cc1ccc(C)c(-c2cc(C)ncc2C)c1` gave an LC retention time of 10.6 min. Work on `Cc1nnc(NN=Cc2ccc(N(C)C)cc2)[nH]c1=O` yielded an LC retention time of 9.86 min. `Cc1ccc(NC(=O)C(=O)NCCN2CCN(C(=O)c3ccccc3)CC2)cc1` gave an LC retention time of 9.8 min. Work on `OCC1CC(O)CN1` (configuration not stated) yielded an LC retention time of 2.85 min. `NC(=O)c1cnc2ccccc2n1` showed an LC retention time of 8.31 min. For `CCn1c2ccccc2c2cc(C=Nn3c(C)cc(C)cc3=O)ccc21`, the LC retention time was 15.9 min. `CCn1cc(CCO)c2ccccc21` showed an LC retention time of 11.7 min. With `Nc1ccc(NC(=O)c2cccc(C(=O)Nc3ccc(N)cc3)c2)cc1` the LC retention time was 7.98 min. For `CC(=O)NC(Cc1c[nH]c2ccccc12)C(N)=O` (configuration not stated), the LC retention time was 7.8 min. `Cc1ncc[nH]1` showed an LC retention time of 4.53 min. Work on `O=C(CN1CCc2ccccc2C1)NC1CCCC1` yielded an LC retention time of 8.99 min. With `CN1CCN(c2nc(N)cc(=O)[nH]2)CC1` the LC retention time was 5.8 min. Work on `CCCCCCCCCC(N)=O` yielded an LC retention time of 13.8 min. `Nc1nc(N)nc(-c2ccc(-c3nc(N)nc(N)n3)cc2)n1` showed an LC retention time of 7.16 min. With `O=C(C=Cc1ccccc1O)c1ccc(O)cc1O` the LC retention time was 12.2 min. With `O=C(NC(c1ccccc1)c1ccccc1)c1cccnc1` the LC retention time was 12.1 min. Compound `CN(C)CCN(C)CCN(C)C` has an LC retention time of 6.9 min. In the case of `CC1(C)Cc2ccccc2C(C2=C(O)CCCC2=O)=N1`, the LC retention time is reported as 10.1 min. Compound `CCCOC(=O)c1ccc(NC(=O)c2ccc(C)cc2)cc1` has an LC retention time of 16.2 min. Compound `Cc1ccc2[nH]ccc2c1` has an LC retention time of 12.8 min. In the case of `Cn1cnc2ccccc21`, the LC retention time is reported as 7.26 min. In the case of `Cn1c(C(=O)O)cc2ccccc21`, the LC retention time is reported as 11.4 min. `CN(C)CCCN1c2ccccc2CCc2ccccc21` gave an LC retention time of 11.6 min. `COc1cc(C=CC(=O)c2ccc(C)cc2)cc(OC)c1OC` showed an LC retention time of 15.9 min. With `COc1ccc(C(=O)C=Cc2ccc(OC)c(COc3cccc(C)c3C)c2)cc1` the LC retention time was 19.9 min. Compound `CC(=O)Oc1ccc(-c2cnc3ccccc3n2)cc1` has an LC retention time of 13.9 min. `Cc1cc(-c2ccccc2)cc(-c2ccccc2)n1` showed an LC retention time of 12.1 min. Compound `Cc1ccc2nc(C)[nH]c2c1` has an LC retention time of 8.32 min. With `OCc1ccc2cc[nH]c2c1` the LC retention time was 8.46 min. In the case of `NC(=O)C1CCCOC1` (configuration not stated), the LC retention time is reported as 5.49 min. Compound `CN(C)C1CCCCC1` has an LC retention time of 7.57 min. In the case of `Cc1cc(N)c2c(c1)CCC(=O)N2`, the LC retention time is reported as 8.69 min. In the case of `NCc1nccc2ccccc12`, the LC retention time is reported as 7.87 min. Work on `CN(Cc1ccccc1)C(=O)c1ccco1` yielded an LC retention time of 11.8 min. `O=C(c1cncc(C(=O)N2CCC(Cc3ccccc3)CC2)c1)N1CCC(Cc2ccccc2)CC1` gave an LC retention time of 17.1 min. In the case of `c1cnccn1`, the LC retention time is reported as 5.91 min. `COC(=O)CCC(=O)Nc1ccc(C)cc1C` showed an LC retention time of 11.7 min. Compound `Nc1cccc(Nc2ccccc2)c1` has an LC retention time of 9.53 min. In the case of `CCCCn1c2ccccc2n2cc(C(C)(C)C)nc12`, the LC retention time is reported as 12.2 min. `CCN(Cc1ccncc1)C(=S)Nc1ccccc1` showed an LC retention time of 8.91 min. `CN(C)CCCNCCCN(C)C` gave an LC retention time of 7.49 min. With `Cn1c(=O)n(C)c2cc(N3CCCCC3)c(N)cc21` the LC retention time was 8.49 min. Compound `CC(=O)c1ccc2c(c1)N(CCCN(C)C)c1ccccc1S2` has an LC retention time of 11.1 min. For `NC(=O)NC1CCCCC1`, the LC retention time was 7.79 min. `c1ccc(CN2CCN(Cc3ccncc3)CC2)nc1` showed an LC retention time of 7.31 min. `CC1CN=C(NC2CCCCC2)S1` (configuration not stated) gave an LC retention time of 7.02 min. In the case of `COc1ccc(N2CC(C(=O)N3CCC(Cc4ccccc4)CC3)CC2=O)cc1` (configuration not stated), the LC retention time is reported as 14.5 min. Work on `CCc1ccc(C2Nc3ccccc3C(=O)N2c2ccc(N(C)C)cc2)cc1` (configuration not stated) yielded an LC retention time of 13.7 min. `Cc1ccc(C(C)C)c(OCCN)c1` showed an LC retention time of 10.2 min. Work on `O=C(NCc1cccnc1)c1cccc2ccccc12` yielded an LC retention time of 9.17 min. Work on `C#CC1(NC(C)=O)CCCCC1` yielded an LC retention time of 9.46 min. With `CCn1cc(-c2ccn[nH]2)cn1` the LC retention time was 7.93 min. Work on `CNC1CCCCC1` yielded an LC retention time of 7.45 min. Compound `Cc1cc(N)c(N)cc1C` has an LC retention time of 7.98 min. For `O=C(NCCO)C(=O)NC(c1ccccc1)c1ccccc1`, the LC retention time was 11.2 min. Compound `C=C(C)C1CCC2=CC(=O)CC(C)C2(C)C1` (configuration not stated) has an LC retention time of 17.1 min. With `CCN(CC)C(=O)N1CCN(c2ccc(N)cc2)CC1` the LC retention time was 8.72 min. `Cc1[nH]c(-c2ccccc2)c(-c2ccccc2)c1C(=O)OCc1ccccc1` showed an LC retention time of 18.2 min. With `NCCCCCCO` the LC retention time was 6.25 min. `Cc1ccc(C)nc1` showed an LC retention time of 6.66 min. `CCc1ccc2c(c1)c(C=O)c(C)n2C` showed an LC retention time of 12.9 min. Work on `CCCCCCCCCCCCCCCCN` yielded an LC retention time of 16.7 min. `CCC1(c2ccccc2)CCC(=O)NC1=O` (configuration not stated) gave an LC retention time of 11.5 min. `CN(C)c1ccc(C(=O)N2CCCC2)cc1` gave an LC retention time of 10.4 min. `CN(C)CCNC1=CC(=O)CC(c2ccccc2)C1` (configuration not stated) showed an LC retention time of 8.55 min. With `O=Cc1cccc2ncccc12` the LC retention time was 8.73 min. In the case of `O=C(NCc1ccc(-n2cccc2)cc1)C(c1ccccc1)c1ccccc1`, the LC retention time is reported as 16.6 min. Work on `Cc1[nH]c(=S)[nH]c1CC(C)C` yielded an LC retention time of 9.02 min. Work on `Nc1cccc2cc(-c3ccccc3)oc12` yielded an LC retention time of 14.5 min. For `O=C(NCCCc1ccccc1)c1ccccc1O`, the LC retention time was 15.3 min. For `CC(=O)Nc1c2ccccc2nc2ccccc12`, the LC retention time was 7.89 min. Compound `NCCCn1ccnc1` has an LC retention time of 6.66 min. Compound `CC1CCN(C(=O)c2ccc(N)cc2)CC1` has an LC retention time of 9.82 min. `Cc1cc(C)c2cccc(C)c2n1` showed an LC retention time of 8.65 min. `OCC1CCCN2CCCCC12` (configuration not stated) showed an LC retention time of 6.81 min. For `O=C(Nc1ccccn1)c1cccc(N2C(=O)CCC2=O)c1`, the LC retention time was 8.59 min. Compound `S=C(Nc1ccccc1)N1CCCCC1` has an LC retention time of 12.3 min. For `Cc1nc2ccccc2nc1C=O`, the LC retention time was 10.9 min. `NCCc1ccccn1` gave an LC retention time of 6.83 min. With `COc1ccc(NC(=O)c2ccc3c(c2)NC(=O)CO3)cc1OC` the LC retention time was 9.62 min. For `CC=CC(=O)CC`, the LC retention time was 9.41 min. `CC1(c2ccccc2)OCOC1=CC[N+](C)(C)C` (configuration not stated) showed an LC retention time of 9.45 min. In the case of `COc1ccc(NC(=O)Nc2ccc(OCC(=O)N3CCOCC3)cc2)cc1`, the LC retention time is reported as 10 min. In the case of `CC1(C)CC(N2CN(C3CCCCC3)CC2=O)CC(C)(C)N1`, the LC retention time is reported as 8.03 min. In the case of `c1ccc(-c2nc3ccccc3o2)cc1`, the LC retention time is reported as 15.4 min. `CC(=O)CC(C)(C)N` showed an LC retention time of 6.26 min. For `O=c1c2ccccc2ncn1Cc1ccncc1`, the LC retention time was 8.03 min. `O=CN1CCCCC1` gave an LC retention time of 7.47 min. Compound `Cc1cccc(NC(=O)C(Cc2c[nH]c3ccccc23)NC(=O)C(c2ccccc2)c2ccccc2)c1C` (configuration not stated) has an LC retention time of 16.7 min. Compound `Nc1ccc2c(c1)nc(-c1ccccc1)c1cc(N)ccc12` has an LC retention time of 9.3 min. In the case of `COc1ccc(OC)c2c(C)cc(C)nc12`, the LC retention time is reported as 8.94 min. In the case of `Cc1ccncc1C`, the LC retention time is reported as 6.82 min. With `Cc1cc(C)nc(Nc2ccccc2C)n1` the LC retention time was 10.7 min. Work on `NC(=O)c1cc2ccccc2o1` yielded an LC retention time of 9.05 min. In the case of `CNc1ccccc1`, the LC retention time is reported as 7.27 min. With `CCC(=O)Nc1ccc(Oc2ccc(NC(=O)CC)c(NC(=O)CC)c2)cc1` the LC retention time was 10.5 min. With `OCc1cccnc1` the LC retention time was 4.28 min. `CCN(CCCc1ccccc1)CCCc1ccccc1` showed an LC retention time of 12.5 min. With `O=C(CCCCCN1C(=O)c2ccccc2C1=O)NCc1ccccn1` the LC retention time was 9.55 min. For `c1ccc(CN(c2ccccn2)c2ccccn2)cc1`, the LC retention time was 11 min. In the case of `Cn1c(=O)n(C)c2cc(N)ccc21`, the LC retention time is reported as 6.8 min. `Nc1ccc2cc[nH]c2c1` gave an LC retention time of 7.56 min. With `NNc1cccc2ncccc12` the LC retention time was 8.48 min. Compound `Cc1cn(COCc2ccccc2)c(=O)[nH]c1=O` has an LC retention time of 9.82 min. `S=C(Nc1cccnc1)N(CCc1ccccc1)Cc1ccccc1` showed an LC retention time of 12.8 min. Work on `CC(C)(C)C(=N)C(C)(C)C` yielded an LC retention time of 8.06 min. With `COc1ccccc1OCCN1CCNCC1` the LC retention time was 8.16 min. `CC(C)Cn1c2ccccc2c2ccccc21` showed an LC retention time of 19.5 min. `CC(C)N1CCNCC1` showed an LC retention time of 6.94 min. Work on `CCc1ccc(C2CC(=O)N(N(C)C)C3=C2C(=O)CCC3)cc1` (configuration not stated) yielded an LC retention time of 15.1 min. Work on `CN(C)C1C(=O)C(C(=O)NCN2CCCC2)C(=O)C2(O)C(=O)C3C(=O)c4c(O)cccc4C(C)(O)C3CC12` (configuration not stated) yielded an LC retention time of 8.91 min. `Cc1nc(N)cc(=O)[nH]1` gave an LC retention time of 2.75 min. In the case of `CC(=O)Nc1ccc(CCC(=O)O)cc1`, the LC retention time is reported as 7.92 min. Compound `Cc1cc(C)nc(C)c1` has an LC retention time of 7.46 min. Compound `CCNc1ccccc1C` has an LC retention time of 8.47 min. For `O=S(=O)(O)CCN1CCN(CCO)CC1`, the LC retention time was 1.95 min. `NCCCCCCN` showed an LC retention time of 6.78 min. Compound `Cc1cccc(-c2nc(=S)[nH][nH]2)c1` has an LC retention time of 9.33 min. Compound `CCNCCN(C)C` has an LC retention time of 7.47 min. In the case of `CCOc1cc(C(=O)N(CC)c2ccccc2)cc(OCC)c1OCC`, the LC retention time is reported as 15.9 min. Work on `c1cnc(NC2=NCCN2)cn1` yielded an LC retention time of 6.92 min. With `CC1CNC(C)CN1` (configuration not stated) the LC retention time was 6.62 min. `Cn1c2c(c(=O)[nH]c1=O)C(c1ccccc1)C1=C(N2)c2ccccc2C1=O` (configuration not stated) gave an LC retention time of 10.6 min. `O=C(NN=Cc1ccccc1)c1ccncc1` showed an LC retention time of 8.96 min. `Cc1ccccc1N1C(=O)NC(=O)C(=Cc2cccn2C)C1=O` gave an LC retention time of 10.9 min. For `CCCC(CCC)C(=O)NC1CCN(Cc2ccccc2)CC1`, the LC retention time was 10.2 min. Compound `CC(CCc1ccccc1)NCC(O)c1ccc(O)c(C(N)=O)c1` (configuration not stated) has an LC retention time of 10 min.
